Reference: patent US20160159789A1, “SUBSTITUTED PYRAZOLOPYRIDINES” (BAYER PHARMA AKTIENGESELLSCHAFT, priority 2013, published 2016)

Target: T1, human full-length MKNK1 (Homo sapiens, UniProt Q9BUB5, T385D)
T1 construct: purchased Carna Biosciences 02-145; host or cells: insect cells (baculovirus expression system)
Test: MKNK1 kinase high ATP assay (TR-FRET)
Assay type: biochemical
Conditions: high ATP (2 mM final), 15 min preincubation with enzyme, GST-MKNK1 (T344D)
Protocol: MKNK1-inhibitory activity at high ATP of compounds of the present invention after their preincubation with MKNK1 was quantified employing the TR-FRET-based MKNK1 high ATP assay as described in the following paragraphs.
A recombinant fusion protein of Glutathione-S-Transferase (GST, N-terminally) and human full-length MKNK1 (amino acids 1-424 and T344D of accession number BAA 19885.1), expressed in insect cells using baculovirus expression system and purified via glutathione sepharose affinity chromatography, was purchased from Carna Biosciences (product no 02-145) and used as enzyme. As substrate for the kinase reaction the biotinylated peptide biotin-Ahx-IKKRKLTRRKSLKG (C-terminus in amide form) was used, which can be purchased e.g. from the company Biosyntan (Berlin-Buch, Germany).
For the assay 50 nL of a 100 fold concentrated solution of the test compound in DMSO was pipetted into a black low volume 384 well microtiter plate (Greiner Bio-One, Frickenhausen, Germany), 2 μL of a solution of MKNK1 in aqueous assay buffer [50 mM HEPES pH 7.5, 5 mM MgCl2, 1.0 mM dithiothreitol, 0.005% (v/v) Nonidet-P40 (Sigma)] was added and the mixture was incubated for 15 min at 22° C. to allow pre-binding of the test compounds to the enzyme before the start of the kinase reaction. Then the kinase reaction was started by the addition of 3 μL of a solution of adenosine-tri-phosphate (ATP, 3.3 mM=> final conc. in the 5 μL assay volume is 2 mM) and substrate (0.1 μM=> final conc. in the 5 μL assay volume is 0.06 μM) in assay buffer and the resulting mixture was incubated for a reaction time of 30 min at 22° C. The concentration of MKNK1 was adjusted depending of the activity of the enzyme lot and was chosen appropriate to have the assay in the linear range, typical concentrations were in the range of 0.003 μg/mL. The reaction was stopped by the addition of 5 μL of a solution of TR-FRET detection reagents (5 nM streptavidine-XL665 [Cisbio Bioassays, Codolet, France] and 1 nM anti-ribosomal protein S6 (pSer236)-antibody from Invitrogen [#44921G] and 1 nM LANCE EU-W1024 labeled ProteinG [Perkin-Elmer, product no. AD0071]) in an aqueous EDTA-solution (100 mM EDTA, 0.1% (w/v) bovine serum albumin in 50 mM HEPES pH 7.5).
The resulting mixture was incubated for 1 h at 22° C. to allow the formation of complex between the phosphorylated biotinylated peptide and the detection reagents. Subsequently the amount of phosphorylated substrate was evaluated by measurement of the resonance energy transfer from the Eu-chelate to the streptavidine-XL. Therefore, the fluorescence emissions at 620 nm and 665 nm after excitation at 350 nm were measured in a TR-FRET reader, e.g. a Rubystar (BMG Labtechnologies, Offenburg, Germany) or a Viewlux (Perkin-Elmer). The ratio of the emissions at 665 nm and at […] was taken as the measure for the amount of phosphorylated substrate. The data were normalised (enzyme reaction without inhibitor=0% inhibition, all other assay components but no enzyme=100% inhibition).

T1 sequence (Q9BUB5 1-424 isoform Q9BUB5-2 T344D): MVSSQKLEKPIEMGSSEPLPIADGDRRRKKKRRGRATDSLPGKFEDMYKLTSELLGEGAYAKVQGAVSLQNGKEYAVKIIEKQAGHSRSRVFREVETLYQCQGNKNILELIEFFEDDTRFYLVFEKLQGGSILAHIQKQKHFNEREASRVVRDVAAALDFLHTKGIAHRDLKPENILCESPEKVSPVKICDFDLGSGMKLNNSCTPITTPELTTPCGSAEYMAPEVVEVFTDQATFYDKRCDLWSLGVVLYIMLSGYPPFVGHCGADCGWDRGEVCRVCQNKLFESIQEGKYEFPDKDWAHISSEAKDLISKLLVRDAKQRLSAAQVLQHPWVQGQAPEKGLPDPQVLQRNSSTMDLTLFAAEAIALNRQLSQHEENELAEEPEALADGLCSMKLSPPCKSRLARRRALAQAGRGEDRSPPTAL

SMILES | IC50
c1ccc(CCc2nc3c(Nc4cc5cn[nH]c5cn4)ncnc3s2)cc1 [Example 79, 2-(2-Phenylethyl)-N-(1H-pyrazolo[3,4-c]pyridin-5-yl)[1,3]thiazolo[5,4-d]pyrimidin-7-amine] | 1350 nM
COc1nc2[nH]ncc2cc1Nc1ncnc2sc3c(c12)CC[C@H](C(=O)N1CC[C@@H](N(C)C)C1)C3 [Example 110, [(3R)-3-(Dimethylamino)pyrrolidin-1-yl]{(7S)-4-[(6-methoxy-1H-pyrazolo[3,4-b]pyridin-5-yl)amino]-5,6,7,8-tetrahydro[1]benzothieno[2,3-d]pyrimidin-7-yl}methanone] | 0.4 nM
COc1nc2[nH]ncc2cc1Nc1ncnc2sc3c(c12)CC[C@H](C(=O)N1CCC(N(C)C)CC1)C3 [Example 43, [4-(Dimethylamino)piperidin-1-yl]{(7S)-4-[(6-methoxy-1H-pyrazolo[3,4-b]pyridin-5-yl)amino]-5,6,7,8-tetrahydro[1]benzothieno[2,3-d]pyrimidin-7-yl}methanone] | 1.6 nM
COc1nc2[nH]ncc2cc1Nc1ncnc2sc3c(c12)CC[C@H](C(=O)N1CC(N(C)C)C1)C3 [Example 141, [3-(Dimethylamino)azetidin-1-yl]{(7S)-4-[(6-methoxy-1H-pyrazolo[3,4-b]pyridin-5-yl)amino]-5,6,7,8-tetrahydro[1]benzothieno[2,3-d]pyrimidin-7-yl}methanone] | 1.2 nM
COc1nc2[nH]ncc2cc1Nc1ncnc2sc3c(c12)CC[C@H](C(=O)N(C)CCC(F)(F)F)C3 [Example 136, (7S)-4-[(6-Methoxy-1H-pyrazolo[3,4-b]pyridin-5-yl)amino]-N-methyl-N-(3,3,3-trifluoropropyl)-5,6,7,8-tetrahydro[1]benzothieno[2,3-d]pyrimidine-7-carboxamide] | 0.5 nM
CC(C)NC(=O)C1CCc2[nH]c3ncnc(Nc4cnc5[nH]ncc5c4)c3c2C1 (racemic) [Example 29, (RS)—N-(Propan-2-yl)-4-(1H-pyrazolo[3,4-b]pyridin-5-ylamino)-6,7,8,9-tetrahydro-5H-pyrimido[4,5-b]indole-6-carboxamide] | 24.7 nM
CCOC(=O)c1cc2c(Nc3cnc4[nH]ncc4c3)ncnc2[nH]1 [Example 9, Ethyl 4-(1H-pyrazolo[3,4-b]pyridin-5-ylamino)-7H-pyrrolo[2,3-d]pyrimidine-6-carboxylate] | 3 nM
COc1nc2[nH]ncc2cc1Nc1ncnc2sc3c(c12)CC[C@H](C(=O)N1CCOCC1)C3 [Example 34] | 2.5 nM
Cc1c[nH]c2ncnc(Nc3cc4cn[nH]c4cn3)c12 [Example 4, N-(5-Methyl-7H-pyrrolo[2,3-d]pyrimidin-4-yl)-1H-pyrazolo[3,4-c]pyridin-5-amine] | 4.2 nM
CN(C)C1CCN(C(=O)[C@H]2CCc3c(sc4ncnc(Nc5cnc6[nH]ncc6c5)c34)C2)CC1 [Example 107, [4-(Dimethylamino)piperidin-1-yl][(7S)-4-(1H-pyrazolo[3,4-b]pyridin-5-ylamino)-5,6,7,8-tetrahydro[1]benzothieno[2,3-d]pyrimidin-7-yl]methanone] | 13.3 nM
CN1CCN(C(=O)C2CCc3[nH]c4ncnc(Nc5cc6cn[nH]c6cn5)c4c3C2)CC1 (racemic) [Example 33, (RS)-(4-Methylpiperazin-1-yl)[4-(1H-pyrazolo[3,4-c]pyridin-5-ylamino)-6,7,8,9-tetrahydro-5H-pyrimido[4,5-b]indol-6-yl]methanone] | 90.4 nM
CCc1c[nH]c2ncnc(Nc3cnc4[nH]ncc4c3)c12 [Example 5, N-(5-Ethyl-7H-pyrrolo[2,3-d]pyrimidin-4-yl)-1H-pyrazolo[3,4-b]pyridin-5-amine] | 12.2 nM
CCCCN(C)C(=O)[C@H]1CCc2c(sc3ncnc(Nc4cc5cn[nH]c5nc4OC)c23)C1 [Example 51, (7S)—N—Butyl-4-[(6-methoxy-1H-pyrazolo[3,4-b]pyridin-5-yl)amino]-N-methyl-5,6,7,8-tetrahydro[1]benzothieno[2,3-d]pyrimidine-7-carboxamide] | 0.5 nM
CN(C)C(=O)c1cc2c(Nc3cc4cn[nH]c4cn3)ncnc2[nH]1 [Example 18, N,N-Dimethyl-4-(1H-pyrazolo[3,4-c]pyridin-5-ylamino)-7H-pyrrolo[2,3-d]pyrimidine-6-carboxamide] | 11.1 nM
CN(C)C1CCN(C(=O)c2[nH]c3ncnc(Nc4cc5cn[nH]c5cn4)c3c2Br)CC1 [Example 69, [5-Bromo-4-(1H-pyrazolo[3,4-c]pyridin-5-ylamino)-7H-pyrrolo[2,3-d]pyrimidin-6-yl][4-(dimethylamino)piperidin-1-yl]methanone] | 19.8 nM
CN(C)C(=O)CNC(=O)c1cc2c(Nc3cc4cn[nH]c4cn3)ncnc2[nH]1 [Example 76, N-[2-(Dimethylamino)-2-oxoethyl]-4-(1H-pyrazolo[3,4-c]pyridin-5-ylamino)-7H-pyrrolo[2,3-d]pyrimidine-6-carboxamide] | 71.5 nM

More lines, now with the values ahead:

IC50 | SMILES
4.9 nM | CCN(C(=O)[C@H]1CCc2c(sc3ncnc(Nc4cc5cn[nH]c5cn4)c23)C1)C(C)C [Example 46, (7S)—N-Ethyl-N-(propan-2-yl)-4-(1H-pyrazolo[3,4-c]pyridin-5-ylamino)-5,6,7,8-tetrahydro[1]benzothieno[2,3-d]pyrimidine-7-carboxamide]
13.5 nM | CCCN(C)C(=O)[C@H]1CCc2c(sc3ncnc(Nc4cnc5[nH]ncc5c4)c23)C1 [Example 93, (7S)—N-Methyl-N-propyl-4-(1H-pyrazolo[3,4-b]pyridin-5-ylamino)-5,6,7,8-tetrahydro[1]benzothieno[2,3-d]pyrimidine-7-carboxamide]
4.5 nM | CN(C)[C@H]1CCN(C(=O)[C@H]2CCc3c(sc4ncnc(Nc5cc6cn[nH]c6cn5)c34)C2)C1 [Example 85, [(3S)-3-(Dimethylamino)pyrrolidin-1-yl][(7S)-4-(1H-pyrazolo[3,4-c]pyridin-5-ylamino)-5,6,7,8-tetrahydro[1]benzothieno[2,3-d]pyrimidin-7-yl]methanone]
4.6 nM | CCN(C)C(=O)[C@H]1CCc2c(sc3ncnc(Nc4cc5cn[nH]c5nc4O)c23)C1 [Example 112, (7S)—N-Ethyl-4-[(6-hydroxy-1H-pyrazolo[3,4-b]pyridin-5-yl)amino]-N-methyl-5,6,7,8-tetrahydro[1]benzothieno[2,3-d]pyrimidine-7-carboxamide]
17.3 nM | CCN(C)C(=O)[C@H]1CCc2c(sc3ncnc(Nc4cc5cn[nH]c5cn4)c23)C1 [Example 58, (7S)—N-Ethyl-N-methyl-4-(1H-pyrazolo[3,4-c]pyridin-5-ylamino)-5,6,7,8-tetrahydro[1]benzothieno[2,3-d]pyrimidine-7-carboxamide]
47.6 nM | O=C([C@H]1CCc2c(sc3ncnc(Nc4cnc5[nH]ncc5c4)c23)C1)N1CCC1 [Example 97, Azetidin-1-yl[(7S)-4-(1H-pyrazolo[3,4-b]pyridin-5-ylamino)-5,6,7,8-tetrahydro[1]benzothieno[2,3-d]pyrimidin-7-yl]methanone]
9.7 nM | O=C([C@H]1CCc2c(sc3ncnc(Nc4cc5cn[nH]c5cn4)c23)C1)N1CCC1 [Example 55, Azetidin-1-yl[(7S)-4-(1H-pyrazolo[3,4-c]pyridin-5-ylamino)-5,6,7,8-tetrahydro[1]benzothieno[2,3-d]pyrimidin-7-yl]methanone]
8 nM | C[C@@H]1COCCN1C(=O)[C@H]1CCc2c(sc3ncnc(Nc4cc5cn[nH]c5cn4)c23)C1 [Example 88, [(3R)-3-Methylmorpholin-4-yl][(7S)-4-(1H-pyrazolo[3,4-c]pyridin-5-ylamino)-5,6,7,8-tetrahydro[1]benzothieno[2,3-d]pyrimidin-7-yl]methanone]
7.7 nM | CN(C)C(=O)[C@H]1CCc2c(sc3ncnc(Nc4cc5cn[nH]c5cn4)c23)C1 [Example 60, (7S)—N,N-Dimethyl-4-(1H-pyrazolo[3,4-c]pyridin-5-ylamino)-5,6,7,8-tetrahydro[1]benzothieno[2,3-d]pyrimidine-7-carboxamide]
